Assay results: US4481201A, “Pharmaceutical composition containing N,N^3 -di-(β-bromopropionyl)-N^1,N^2 -dispirotripiperazinium dichloride” (Vsesojuzny Nauchno-Issledovatelsky Khimoko-Farmasevtichesky …, priority 1981, dated 1984)
Read-outs that look alike come from different tables or passages of the source.

Experiments:
Ienssen's sarcoma = assay: Growth of graft Ienssen sarcoma in rats; type: in vivo; conditions: for Ch/T chemotherapeutical index (ratio of MTD to minimum effective dose): Ienssen sarcoma
Excerpt: (§1) The antitumor activity has been studied on white rats weighing 110-130 g, as well as on white noninbred and inbred mice weighing 17-21 g with ligated tumors. The treatment is started 5-7 days transplanting of solid tumors and the following day after the transplanting of leukotic strains. Use has been made of the following transplantable strains of the tumors:
(§2) (1) rats: Ienssen's sarcoma, sarcoma 45, sarcoma M-1, sarcoma 536;
(§3) The compounds of the general formula (I), wherein X represents Cl^- (compound 1), Br^- (compound 2) are well-soluble in an isotonic solution of sodium chloride and they are administered intraperitoneally. The doses of the compounds have been calculated in mg per kg of the animal bodyweight.

[1] = Growth of graft Ienssen sarcoma in rats; type: in vivo; conditions: rat, in vivo, ip, rats with Ienssen sarcoma, repeated intraperitoneal administration; read-out: Maximum tolerable dose (MTD)
Excerpt: as §1, §2, §3

[2] = Toxicity on single and repeated administration to mice; type: in vivo
Protocol: (3) acute toxicity of the compounds upon a single and repeated administration to white noninbred mice places into standard cages with 8 animals in each.
In the investigation of toxic properties of the compounds according to the present invention there has been determined the absolutely lethal dose (DL95), average lethal dose (DL50) and MTD. For compounds 1 and 2 there were determined DL95 and DL50 on healthy white mice with the body mass of 18-21 g at a single and repeated (once a day, daily for 7 days) intraperitoneal administration.

sarcoma 45 = assay: Growth of graft sarcoma 45 in rats; type: in vivo; conditions: rats
Excerpt: as §1, §2, §3

[3] = Growth of graft sarcoma 45 in rats; type: in vivo; conditions: rat, in vivo, ip, rats with sarcoma 45, repeated intraperitoneal administration; read-out: Maximum tolerable dose (MTD)
Excerpt: as §1, §2, §3

acute leucosis = assay: Clinical study on patients; type: in vivo
Excerpt: The preparation according to the present invention has been studied in two clinics on patients with different localization of the tumoral process; the tests have justified its low toxicity.
54 patients were under observation including 20 patients with malignant blood diseases. In all the patients both before and after the course of treatment with the medicated compound according to the present invention the clinical state has been assessed (general state, presence of increased lymphatic nodes, liver and spleen). There were also carried out the analyses of peripheral blood, bone marrow, urine, as well as biochemical blood characteristics and electrocardiographic data (ECG).

Solubility = type: physicochemical
Protocol: as §3
To a mixture of 3 g of N^1,N^2 -dispirotripiperazinium dichloride, 1.5 g of lithium hydroxide, 1 ml of water and 10 ml of ether a solution of 5.2 g of β-bromopropionic acid chlorid in 5 ml of ether is added under vigorous stirring and at a temperature of 5° to 10° C. The reaction mass is stirred for 2 hours at the temperature of 15° C. The residue is filtered off, dissolved in 10 ml of water; the resulting aqueous solution is poured in 100 ml of methanol.

leukemia P-388 = assay: Life span of mice with transplantable leukemia P-388; type: in vivo, inbred mice
Excerpt: as §1
(§4) (3) inbred mice: leukemia La, leukemia L1210 and P-388.
(§5) The activity of compounds relative to leukosis has been assessed by the life span (It) of treated animals as compared to the control ones. It --index of suppression of leukosis development is calculated by the formula: [formula]

sarcoma AK = assay: Growth of graft sarcoma AK in mice; type: in vivo, noninbred white mice; conditions: mice
Excerpt: as §1
(§6) (2) noninbred white mice: sarcoma 180, sarcoma AK, sarcoma 37, carcinoma HK;
as §3

[4] = Growth of graft sarcoma AK in mice; type: in vivo, noninbred white mice; conditions: mouse, in vivo, ip; mice with sarcoma AK, repeated intraperitoneal administration; read-out: Maximum tolerable dose (MTD)
Excerpt: as §1, §6, §3

sarcoma 180 = assay: Growth of graft sarcoma 180 in mice; type: in vivo, noninbred white mice; conditions: mice; for It, % tumor growth suppression index / Change in the animal body weight, test: 6 injections
Excerpt: as §1, §6, §3

[5] = Growth of graft sarcoma 180 in mice; type: in vivo, noninbred white mice; conditions: mouse, in vivo, ip; mice with sarcoma 180, repeated intraperitoneal administration; read-out: Maximum tolerable dose (MTD)
Excerpt: as §1, §6, §3

leukemia La = assay: Life span of mice with transplantable leukemia La; type: in vivo, inbred mice
Excerpt: as §1, §4, §5

transplantable leukemia = assay: Activity relative to leukoses of inbred mice (overall); type: in vivo
Excerpt: (2) activity of the compounds relative to leukoses of inbred mice;
as §1, §4, §5

[6] = hypodermally, 68.6 mg/kg, 5 injections
[7] = intramuscularly, 55.5 mg/kg, 6 injections
[8] = rats, 1 mg/kg intraperitoneally, 7 injections
[9] = rats, 4 mg/kg intraperitoneally, 6 injections
[10] = rats, 6 mg/kg intraperitoneally, 6 injections
[11] = rats, 10 mg/kg intraperitoneally, 7 injections
[12] = rats, 20 mg/kg intraperitoneally, 7 injections
[13] = rats, 40 mg/kg intraperitoneally, 5 injections
[14] = rats, 90 mg/kg intraperitoneally, 7 injections
[15] = rats, 125 mg/kg intraperitoneally, 7 injections
[16] = rats, per os, 142 mg/kg, 7 injections
[17] = mice, repeated intraperitoneal administration (once a day, daily for 7 days)
[18] = mice, repeated intraperitoneal administration (once a day, daily for 7 days), listed as Preparation of the invention
[19] = mice, single intraperitoneal administration
[20] = 50 mg/kg intraperitoneally, 7 injections
[21] = 80 mg/kg intraperitoneally, 5 injections
[22] = mice with transplantable leukemia P-388
[23] = 75 mg/kg intraperitoneally, 8 injections
[24] = 125 mg/kg intraperitoneally, 6 injections
[25] = mice with transplantable leukemia La

For `O=C(CCBr)N1CC[N+]2(CC1)CC[N+]1(CCN(C(=O)CCBr)CC1)CC2` [Compound 1, N,N^3 -di-(β-bromopropionyl)-N^1,N^2 -dispirotripiperazinium dichloride], the “Ch/T chemotherapeutical index (ratio of MTD to minimum effective dose)” value (Ienssen's sarcoma) was 60, the “Ch/T chemotherapeutical index (ratio of MTD to minimum effective dose)” value (Ienssen's sarcoma; listed as Preparation of the invention) was 60 and the “Change in the bodyweight of animals, test” value (“Change in the bodyweight” for short) (Ienssen's sarcoma; [6]) was -6 g. For the same compound, the “It, %” value (Ienssen's sarcoma; [6]) was “+86%”, the “Change in the bodyweight” value (Ienssen's sarcoma; [7]) was -11 g and the “It, %” value (Ienssen's sarcoma; [7]) was “+78%”. For the same compound, the “Change in the animal body weight, test” value (Ienssen's sarcoma; [8]) was -2 g, the “It, % tumor growth suppression index” value (Ienssen's sarcoma; [8]) was 0% and the “Change in the animal body weight, test” value (Ienssen's sarcoma; rats, 2 mg/kg intraperitoneally, 6 injections) was -1 g. The “Change in the animal body weight, test” value (Ienssen's sarcoma; [9]) was 0 g, the “It, % tumor growth suppression index” value (Ienssen's sarcoma; [9]) was “+81%” and the “Change in the animal body weight, test” value (Ienssen's sarcoma; [10]) was “+10 g”. The “It, % tumor growth suppression index” value (Ienssen's sarcoma; [10]) was “+80%”, the “Change in the animal body weight, test” value (Ienssen's sarcoma; [11]) was “+4 g” and the “It, % tumor growth suppression index” value (Ienssen's sarcoma; [11]) was “+93%”. The “Change in the animal body weight, test” value (Ienssen's sarcoma; [12]) was “+30 g”, the “It, % tumor growth suppression index” value (Ienssen's sarcoma; [12]) was “+98%” and the “Change in the animal body weight, test” value (Ienssen's sarcoma; [13]) was “+20 g”. The “It, % tumor growth suppression index” value (Ienssen's sarcoma; [13]) was “+85%”, the “Change in the animal body weight, test” value (Ienssen's sarcoma; [14]) was “+6 g” and the “It, % tumor growth suppression index” value (Ienssen's sarcoma; [14]) was “+86%”. The “Change in the animal body weight, test” value (Ienssen's sarcoma; [15]) was “+4 g”, the “It, % tumor growth suppression index” value (Ienssen's sarcoma; [15]) was “+89%” and the “Change in the animal body weight, test” value (Ienssen's sarcoma; rats, 160 mg/kg intraperitoneally (MTD), 7 injections) was -12 g. For the same compound, the “Change in the bodyweight” value (Ienssen's sarcoma; [16]) was -15 g, the “It, %” value (Ienssen's sarcoma; [16]) was “+55%” and the “range of therapeutical action as compared to prospidin” value (Ienssen's sarcoma; wider than prospidin) was 2.5 fold. The MTD [1] was 160 mg/kg, the “toxicity in comparison with prospidin” value ([2]; less toxic than prospidin, DL50 single administration to mice) was 2 times and the “Ik index of toxic effect cumulation” value ([2]; mice, intraperitoneal administration) was 82. For the same compound, the “DL50 (average lethal dose)” value [2, 17] was 444 mg/kg, the “DL95 (absolutely lethal dose)” value [2, 17] was 577 mg/kg and the “DL50 (average lethal dose)” value [2, 18] was 444 mg/kg. The “DL95 (absolutely lethal dose)” value [2, 18] was 577 mg/kg, the “DL50 (average lethal dose)” value [2, 19] was 1,924 mg/kg and the “DL95 (absolutely lethal dose)” value [2, 19] was 2,272 mg/kg. For the same compound, the “DL95 (absolutely lethal dose)” value ([2]; mice, single intraperitoneal administration, listed as Preparation of the invention) was 2272 mg/kg, the “DL50 (average lethal dose)” value ([2]; mice, single intraperitoneal administration, listed as preparation according to the present invention) was 1,924 mg/kg and the LD50 ([2]; mouse, in vivo, ip, mice, single intraperitoneal administration, read-out: DL50 (average lethal dose)) was 1920 mg/kg. For the same compound, the MTD ([2]; mouse, in vivo, ip, repeated intraperitoneal administration, read-out: MTD) was 149 mg/kg, the “Change in the animal body weight, test” value (sarcoma 45; 20 mg/kg intraperitoneally, 7 injections) was -12 g and the “It, % tumor growth suppression index” value (sarcoma 45; 20 mg/kg intraperitoneally, 7 injections, 20 mg/kg) was 0%. For the same compound, the “Change in the animal body weight, test” value (sarcoma 45; [20]) was -8 g, the “It, % tumor growth suppression index” value (sarcoma 45; [20]) was “+61%” and the “Change in the animal body weight, test” value (sarcoma 45; [21]) was -9 g. For the same compound, the “It, % tumor growth suppression index” value (sarcoma 45; [21]) was “+99%”, the “Change in the animal body weight, test” value (sarcoma 45; 125 mg/kg intraperitoneally (MTD), 5 injections) was -3 g and the MTD [3] was 125 mg/kg. For the same compound, the “patients with positive effect” value (acute leucosis; intravenously, doses of from 100 to 1,000 mg) was 45%, the tolerability in patients (acute leucosis; intravenously, single doses 500 to 600 mg daily (up to 10 g for 20 days)) was “well tolerated” and the “patients with complete clinicohematological remission” value (acute leucosis; patients with acute lympho- and mielo-regional leukemiae, intravenously 100 to 1,000 mg) was 20%. The “solubility in an isotonic solution of sodium chloride” value (Solubility) was “well-soluble”, the “solubility in organic solvents” value (Solubility) was “substantially insoluble” and the solubility in water (Solubility) was “well soluble”. For the same compound, the “extension of life span as compared to the control, factor” value (leukemia P-388; leukemia P-388) was 2, the “It, % index of suppression of leukosis development” value (leukemia P-388; [22]) was 103% and the “Life span” value (leukemia P-388; [22]) was 19.7 ± 0.2 days. For the same compound, the “Change in the animal body weight, test” value (sarcoma AK; [23]) was -3 g, the “It, % tumor growth suppression index” value (sarcoma AK; [23]) was “+81%” and the “Change in the animal body weight, test” value (sarcoma AK; [24]) was -1 g. The “It, % tumor growth suppression index” value (sarcoma AK; [24]) was “+62%”, the “It, % tumor growth suppression index” value (sarcoma AK; 200 mg/kg intraperitoneally, 5 injections) was “+64%” and the “Change in the animal body weight, test” value (sarcoma AK; 250 mg/kg intraperitoneally (MTD), 6 injections) was -3 g. The MTD [4] was 250 mg/kg, the “tumor growth suppression class, Sarcoma 180” value (sarcoma 180) was “++ (tumor growth suppression by 80-95%)” and the “It, % tumor growth suppression index” value (sarcoma 180; 25 mg/kg intraperitoneally) was “+42%”. The “Change in the animal body weight, test” value (sarcoma 180; 75 mg/kg intraperitoneally) was -4 g, the “It, % tumor growth suppression index” value (sarcoma 180; 75 mg/kg intraperitoneally, 75 mg/kg) was “+74%” and the “It, % tumor growth suppression index” value (sarcoma 180; 75 mg/kg intraperitoneally, listed as preparation of the invention, 75 mg/kg) was 74%. The “Change in the animal body weight, test” value (sarcoma 180; 262 mg/kg intraperitoneally (MTD)) was -6 g, the MTD [5] was 262 mg/kg and the “extension of life span of treated mice as compared to the control” value (leukemia La; leukemia La, MTD) was 3 times. The “It, % index of suppression of leukosis development” value (leukemia La; [25]) was 218%, the “Life span” value (leukemia La; [25]) was 21.2 ± 0.1 days and the “effect on transplantable leukemia in mice” value (transplantable leukemia) was “clearly pronounced antileukotic effect”. For the same compound, the “effect on transplantable leukemia in mice” value (transplantable leukemia; listed as preparation according to the present invention) was “pronounced antileucotic effect”.
